Here are results for eight compounds from ChEMBL document CHEMBL5335853, “Acremosides A-G, Sugar Alcohol-Conjugated Acyclic Sesquiterpenes from a Sponge-Derived Acremonium Species” (J Nat Prod, 2024).

The structures appear in SMILES notation.

For series [1], the system named is Escherichia coli. The series is described as follows: Antimicrobial activity against Escherichia coli ATCC 25922 assessed as inhibition of microbial growth by CLSI protocol based two-fold serial broth microdilution method. Type of series: functional. On the technique in general: In broth dilution the organism is exposed to a series of concentrations in liquid medium.

Series [2] relates to Staphylococcus aureus. Nature of the series: Antimicrobial activity against Staphylococcus aureus ATCC 29213 assessed as inhibition of microbial growth by CLSI protocol based two-fold serial broth microdilution method. Type of series: functional.
Series [3] is described as follows: Selectivity index, ratio of CC50 for cytotoxicity against human Huh7.5 cells to EC50 for antiviral activity against HCV infected in human Huh7.5 cells. Type of series: toxicity, cell-based. Particulars: read-out: Ratio CC50/EC50.
Series [4] has as its system Edwardsiella tarda. The series is described as follows: Antimicrobial activity against Edwardsiella tarda ATCC 15947 assessed as inhibition of microbial growth by CLSI protocol based two-fold serial broth microdilution method. It is filed as functional.
In series [5] the test system is Pseudomonas aeruginosa. Nature of the series: Antimicrobial activity against Pseudomonas aeruginosa ATCC 27853 assessed as inhibition of microbial growth by CLSI protocol based two-fold serial broth microdilution method. Type of series: functional.
Series [6] relates to Hepatitis C virus. The series is described as follows: Antiviral activity against HCV infected in human Huh-7.5 cells assessed as inhibition of viral replication incubated for 72 hrs by qRT-PCR analysis. It is filed as functional, organism-based, Hepacivirus hominis. Particulars: Huh7.5, 72 h.
Series [7] is described as follows: Cytotoxicity against human Huh7.5 cells assessed as reduction in cell viability by CCK-8 assay. It is filed as toxicity, cell-based, Huh-7.5.
Series [8] has as its system Klebsiella pneumoniae. Nature of the series: Antimicrobial activity against Klebsiella pneumoniae ATCC 700603 assessed as inhibition of microbial growth by CLSI protocol based two-fold serial broth microdilution method. Type of series: functional.
The subject of series [9] is Staphylococcus epidermidis. The series is described as follows: Antimicrobial activity against Staphylococcus epidermidis ATCC 12228 assessed as inhibition of microbial growth by CLSI protocol based two-fold serial broth microdilution method. It is filed as functional.
Series [10] deals with Bacillus subtilis. The series is described as follows: Antimicrobial activity against Bacillus subtilis ATCC 6633 assessed as inhibition of microbial growth by CLSI protocol based two-fold serial broth microdilution method. Type of series: functional.
Series [11] relates to Edwardsiella ictaluri. The series is described as follows: Antimicrobial activity against Edwardsiella ictaluri ATCC 33202 assessed as inhibition of microbial growth by CLSI protocol based two-fold serial broth microdilution method. It is filed as functional.

As usually defined, the MIC is the least concentration at which growth counts as inhibited. By EC50 is commonly meant the concentration needed to bring the measured effect to its halfway point. As a reminder, the CC50 is the concentration that lowers cell viability or growth by half. As to `COC[C@@H](O)[C@@H](OC/C=C(\C)[C@@H](C[C@@H](O)[C@@](C)(O)CCC=C(C)C)OC(=O)Cc1ccccc1)[C@H](O)[C@H](O)CO`, the minimum inhibitory concentration (MIC) in series [1], in series [2], in series [4], in [5], in series [8] and in series [9] was at least 128 µg/mL each time. The MIC in [10] and in series [11] was at least 128 µg/mL throughout. For the same compound, the selectivity ratio in [3] was over 4. For the same compound, the half-maximal effective concentration (EC50) in series [6] was found to be 14 µM. The CC50 in series [7] worked out at 55 µM.
Take `CC(C)=CCC[C@](C)(O)[C@H](O)C[C@@H](OC(=O)Cc1ccccc1)/C(C)=C/CO[C@@H]([C@H](O)[C@@H](C)O)[C@H](O)CO`: the MIC in series [1], in [2], in series [4], in series [5], in [8] and in series [9] was at least 128 µg/mL throughout. Besides, the minimal inhibitory concentration (MIC) in [10] and in series [11] was at least 128 µg/mL throughout. Also, in [3], the selectivity ratio was over 25. Besides, the EC50 in series [6] was found to be 7.9 µM. For the same compound, the CC50 in series [7] is over 200 µM.
On to `CC(C)OC(=O)[C@H](C)N[P@](=O)(OC[C@H]1O[C@@H](n2ccc(=O)[nH]c2=O)[C@](C)(F)[C@@H]1O)Oc1ccccc1` [SOFOSBUVIR], for which, in series [3], the selectivity ratio is over 2220. For the same compound, the concentration giving a half-maximal response (EC50) in series [6] is 0.09 µM. Also, the CC50 in series [7] is over 200 µM.
For `CC(C)=C[C@@H]1C[C@](C)(O)[C@@H](C[C@@H](OC(=O)Cc2ccccc2)/C(C)=C/CO[C@@H]([C@H](O)[C@H](O)CO)[C@H](O)CO)O1`, the minimal inhibitory concentration (MIC) in series [1], in series [2], in [4], in series [5], in series [8] and in series [9] was at least 128 µg/mL each time. Besides, the MIC in series [10] and in [11] was at least 128 µg/mL throughout. For the same compound, in [3], the selectivity ratio was over 23. In addition, the half-maximal effective concentration (EC50) in series [6] came out at 8.8 µM. Also, in series [7], the CC50 is over 200 µM.
With `CC(C)=C[C@H]1C[C@](C)(O)[C@@H](C[C@@H](OC(=O)Cc2ccccc2)/C(C)=C/CO[C@@H]([C@H](O)[C@H](O)CO)[C@H](O)CO)O1`, the minimal inhibitory concentration (MIC) in series [1], in [2], in [4], in [5], in series [8] and in [9] was at least 128 µg/mL in each case. In addition, the minimal inhibitory concentration (MIC) in [10] and in series [11] was at least 128 µg/mL throughout. For the same compound, the selectivity ratio in series [3] was over 12. Further, the 50% effective concentration (EC50) in [6] amounted to 16 µM. In addition, the cytotoxic concentration (CC50) in [7] is over 200 µM.
Consider `COC[C@@H](O)[C@@H](OC/C=C(\C)[C@@H](C[C@H]1O[C@H](C=C(C)C)C[C@]1(C)O)OC(=O)Cc1ccccc1)[C@H](O)[C@H](O)CO`, for which the minimum inhibitory concentration (MIC) in series [1], in series [2], in series [4], in series [5], in series [8] and in series [9] was at least 128 µg/mL throughout. The minimum inhibitory concentration (MIC) in series [10] and in series [11] was at least 128 µg/mL throughout. Also, the selectivity ratio in [3] was over 17. Besides, the 50% effective concentration (EC50) in series [6] worked out at 12 µM. The CC50 in [7] is over 200 µM.
As for `CC(C)=CCC[C@](C)(O)[C@H](O)C[C@@H](OC(=O)Cc1ccccc1)/C(C)=C/COC([C@H](O)CO)[C@H](O)CO`, the minimum inhibitory concentration (MIC) in series [1], in [2], in [4], in series [5], in series [8] and in series [9] was at least 128 µg/mL in each case. For the same compound, the minimum inhibitory concentration (MIC) in series [10] and in [11] was at least 128 µg/mL in each case. For the same compound, the selectivity ratio in [3] was over 31. The EC50 in series [6] is 6.5 µM. Further, the cytotoxic concentration (CC50) in [7] was over 200 µM.
On to `CC(C)=CCC[C@](C)(O)[C@H](O)C[C@@H](OC(=O)Cc1ccccc1)/C(C)=C/CO[C@@H]([C@H](O)[C@H](O)CO)[C@H](O)CO`, for which the minimum inhibitory concentration (MIC) in series [1], in [2], in series [4], in [5], in [8] and in [9] was at least 128 µg/mL throughout. Moreover, the MIC in series [10] and in series [11] was at least 128 µg/mL in each case. Moreover, the selectivity ratio in series [3] was over 42. The EC50 in [6] is 4.8 µM. In series [7], the CC50 was over 200 µM.
